± gives the expanded uncertainty stated by the source.
Columns and labels:
[1] = excess molar enthalpy (molar enthalpy of mixing); xn = mol fraction of the nth substance listed; conditions: 101.33 kPa, Liquid, Flow calorimetry
[2] = 298.15 K; 101.33 kPa; Liquid

Q: With CCCC(C)C [2-methylpentane] + CN(C)C=O as the compound, how does the excess molar enthalpy ([1]; 298.15 K, x1 = 0.03) read?
A: Its excess molar enthalpy is 0.0551 ± 0.00148 kcal/mol.

Q: And the excess molar enthalpy ([1]; 298.15 K, x1 = 0.0611)?
A: Its excess molar enthalpy is 0.105 ± 0.00239 kcal/mol.

Q: And the excess molar enthalpy ([1]; 298.15 K, x1 = 0.0613)?
A: Its excess molar enthalpy is 0.105 ± 0.00239 kcal/mol.

Q: What about the excess molar enthalpy ([1]; 298.15 K, x1 = 0.094) of the same compound?
A: Its excess molar enthalpy is 0.154 ± 0.00335 kcal/mol.

Q: What about the excess molar enthalpy ([1]; 298.15 K, x1 = 0.9462) of the same compound?
A: The excess molar enthalpy was 0.112 ± 0.00239 kcal/mol.

Q: And the excess molar enthalpy ([1]; 313.15 K, x1 = 0.03)?
A: Its excess molar enthalpy is 0.0551 ± 0.00148 kcal/mol.

Q: What about the excess molar enthalpy ([1]; 313.15 K, x1 = 0.0611) of the same compound?
A: Its excess molar enthalpy is 0.107 ± 0.00239 kcal/mol.

Q: And the excess molar enthalpy ([1]; 313.15 K, x1 = 0.0613)?
A: Its excess molar enthalpy is 0.108 ± 0.00239 kcal/mol.

Q: What about the excess molar enthalpy ([1]; 313.15 K, x1 = 0.094) of the same compound?
A: The excess molar enthalpy was 0.157 ± 0.00359 kcal/mol.

Q: And the excess molar enthalpy ([1]; 313.15 K, x1 = 0.1281)?
A: Its excess molar enthalpy is 0.202 ± 0.0043 kcal/mol.

Q: What about the excess molar enthalpy ([1]; 313.15 K, x1 = 0.9178) of the same compound?
A: Its excess molar enthalpy is 0.174 ± 0.00382 kcal/mol.

Q: And the excess molar enthalpy ([1]; 313.15 K, x1 = 0.9462)?
A: Its excess molar enthalpy is 0.113 ± 0.00263 kcal/mol.

Q: And the excess molar enthalpy ([1]; 313.15 K, x1 = 0.9469)?
A: Its excess molar enthalpy is 0.11 ± 0.00263 kcal/mol.

Q: Which mass density [2] does the source give for CCCC(C)C [2-methylpentane] here?
A: Its mass density is 648.45 ± 0.44 kg/m3.

Q: For CN(C)C=O [dimethylformamide], which mass density [2] is on record?
A: Its mass density is 943.81 ± 0.15 kg/m3.
